Here are results for one compound from patent US20250295648A1 (priority 2024, published 2025).

This data set is described as follows: clinical. To be noted: human, in vivo. As to the method: Blood was collected for NLX-112 plasma concentration measurements on Days 14, 21, 28, 42 and 70 (Visits 4, 5, 6, 7 and 9).
The concentration of NLX-112 was determined in 120 human plasma samples collected from the clinical study. The bioanalysis was performed in the calibration range of 1.0 ng/ml to 1620 ng/ml using a 35 μL sample volume.
The Qualification Runs 1 and 2 contained two calibration curves, six sets of QC samples at eight levels (QC1 to QC8), as well as UPLC and Tecan Carry-over test samples. The analytical run 1 contained two calibration curves, four sets of QC samples at three levels (QC L, M and H), as well as […] and Tecan Carry-over test samples. The qualification and analysis was performed in an exploratory setting.
The analytical instrumentation consisted of an Acquity UPLC system coupled to a Xevo-TQS micro tandem quadrupole mass spectrometer (Waters Corp., Milford, MA, USA). […]
A combined calibration curve was constructed from the two sets of calibration samples for each run. […] The lower limit of quantification (LLOQ) for the method was 1.0 ng/mL and the upper limit of quantification (ULOQ) was 1620 ng/mL of NLX-112 in human plasma.
The mean NLX-112 blood plasma concentration measured in treated patients on study days 14 (Visit 4), […] (Visit 5), 28 (Visit 6), 42 (Visit 7), and 70 (Visit 9) is shown in Table 5. […]

On to `Cc1ccc(CNCC2(F)CCN(C(=O)c3ccc(F)c(Cl)c3)CC2)nc1` [NLX-112, (3-chloro-4-fluoro-phenyl)-[4-fluoro-4-{[(5-methyl-pyridin-2-ylmethyl)-amino]-methyl}piperidin-1-yl]methanone], for which the concentration at 14 day stood at 32.3 ng/mL and the concentration at 25 day amounted to 38.7 ng/mL.
